From ChEMBL document CHEMBL1152999, “Synthesis and anti-HSV-1 evaluation of some pyrazoles and fused pyrazolopyrimidines” (2009)

Experiments:
Human alphaherpesvirus 1 [1] = experiment: Antiviral activity against HSV1 infected in african green monkey Vero cells assessed as reduction in virus plaque formation at 10 ug per 10^5 cells by plaque infectivity assay; type: functional; design: scale not given: the % may be the effect or the level left
Human alphaherpesvirus 1 [2] = experiment: Antiviral activity against HSV1 infected in african green monkey Vero cells assessed as reduction in virus plaque formation at 20 ug per 10^5 cells by plaque infectivity assay; type: functional; design: scale not given: the % may be the effect or the level left

Row | Structure (SMILES) | Activity (Human alphaherpesvirus 1 [1]) [%] | Activity (Human alphaherpesvirus 1 [2]) [%]
1 | N#Cc1cnn(-c2ncnc3sc4c(c23)-c2ccccc2CC4)c1N | 16.6 | 0
2 | CC(=O)OC[C@@H](OC(C)=O)[C@H](OC(C)=O)[C@@H](OC(C)=O)[C@H](OC(C)=O)c1nc2c3cnn(-c4ncnc5sc6c(c45)-c4ccccc4CC6)c3ncn2n1 | 29 | 57
3 | Nc1ncnc2c1cnn2-c1ncnc2sc3c(c12)-c1ccccc1CC3 | 44.6 | 0
4 | CC(=O)Nc1c(C#N)cnn1-c1ncnc2sc3c(c12)-c1ccccc1CC3 | 0 | 67.6
5 | CC(=O)OC[C@@H](OC(C)=O)[C@H](OC(C)=O)[C@@H](OC(C)=O)[C@@H](/C=N/Nc1ncnc2c1cnn2-c1ncnc2sc3c(c12)-c1ccccc1CC3)OC(C)=O | 34 | 69
6 | N#Cc1cnn(-c2ncnc3sc4c(c23)-c2ccccc2CC4)c1NC=O | 28.5 | 48
7 | OC[C@@H](O)[C@H](O)[C@@H](O)[C@H](O)/C=N/Nc1ncnc2c1cnn2-c1ncnc2sc3c(c12)-c1ccccc1CC3 | 43 | 99
8 | Cc1nc2c(cnn2-c2ncnc3sc4c(c23)-c2ccccc2CC4)c(=O)[nH]1 | 44.4 | 0
9 | NNc1ncnc2c1cnn2-c1ncnc2sc3c(c12)-c1ccccc1CC3 | 56 | 0
10 | O=c1[nH]cnc2c1cnn2-c1ncnc2sc3c(c12)-c1ccccc1CC3 | 47.7 | 0
11 | Nc1nc2c(ncn2COCCO)c(=O)[nH]1 [ACYCLOVIR] | 12 | 28
